According to patent US20230159510A1, “NOVEL PRMT5 INHIBITORS” (AMGEN INC., priority 2020, published 2023):

What was measured:
HCT116 MTAP null cells = assay: HCT116 proliferation assay, MTAP null cells (CellTiter-Glo, 6 days); assay type: cell-based; settings: HCT116-MTAP null, 144 h, read-out: Protif_ HCT116-MTAP null IC50
In short: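 RPMI 1640/10% FBS; overnight attachment at 37° C, 5% CO2; 8–9-pt 1:3 titration, top 1 or 10 µM; DMSO ctrl; luminescence readout.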

PRMT5/MEP50 = PRMT5/MEP50 (Homo sapiens, UniProt O14744); assay: MTase-Glo methyl transferase assay, Method B (FL-Histone H2A, 1 µM MTA, 1 h pre-incubation); assay type: biochemical; design: purchased Reaction Biology Corp RD-11-292; settings: read-out: PRMT5 MTase Glo Ki (nM, Meth. B)
PRMT5/MEP50, sequence (O14744 2-637 limits assumed): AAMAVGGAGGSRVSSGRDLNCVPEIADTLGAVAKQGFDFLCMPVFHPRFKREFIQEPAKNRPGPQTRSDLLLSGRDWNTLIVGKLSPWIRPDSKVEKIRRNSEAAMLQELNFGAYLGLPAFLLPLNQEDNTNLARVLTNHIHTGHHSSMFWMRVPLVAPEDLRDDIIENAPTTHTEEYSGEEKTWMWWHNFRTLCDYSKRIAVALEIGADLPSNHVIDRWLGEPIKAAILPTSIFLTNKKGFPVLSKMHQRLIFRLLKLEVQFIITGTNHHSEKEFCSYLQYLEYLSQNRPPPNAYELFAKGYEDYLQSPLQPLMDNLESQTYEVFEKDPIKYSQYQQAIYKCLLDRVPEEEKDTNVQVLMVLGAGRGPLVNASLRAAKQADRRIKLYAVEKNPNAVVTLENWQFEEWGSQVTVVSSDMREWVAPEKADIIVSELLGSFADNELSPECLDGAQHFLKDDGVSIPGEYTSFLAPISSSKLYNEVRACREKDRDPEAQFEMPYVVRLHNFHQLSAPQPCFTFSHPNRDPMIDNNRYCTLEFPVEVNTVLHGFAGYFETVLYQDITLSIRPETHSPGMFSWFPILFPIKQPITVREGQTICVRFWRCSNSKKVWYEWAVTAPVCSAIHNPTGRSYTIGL
PRMT5/MEP50, sequence (Q9BQA1 2-342 partner limits assumed): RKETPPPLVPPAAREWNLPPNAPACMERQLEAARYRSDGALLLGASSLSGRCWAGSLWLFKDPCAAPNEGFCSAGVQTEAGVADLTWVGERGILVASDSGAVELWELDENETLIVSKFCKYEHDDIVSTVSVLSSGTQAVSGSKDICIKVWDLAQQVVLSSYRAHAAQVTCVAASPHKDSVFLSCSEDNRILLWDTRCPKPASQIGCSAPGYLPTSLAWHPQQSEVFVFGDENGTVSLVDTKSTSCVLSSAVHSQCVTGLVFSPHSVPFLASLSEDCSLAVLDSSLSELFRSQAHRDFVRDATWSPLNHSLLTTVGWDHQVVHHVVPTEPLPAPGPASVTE
Protocol: Method B: The PRMT5 inhibitory activity of test compounds was determined using the MTase-Glo™ assay (Promega), which monitors the product (S-adenosyl homocysteine or SAH) of methyltransferase reactions. The PRMT5 MTase-Glo assay was conducted in a 384-well white ProxiPlate (PerkinElmer) in a total volume of 16 µL. The PRMT5 enzymatic reaction (in 8 µL) contained 4 nM PRMT5/MEP50 (Reaction Biology Corp, catalog no.: RD-11-292), 5 µM S-adenosyl methionine (SAM, Promega), 2.5 µM FL-Histone H2A (BPS Bioscience, catalog no.: 52021), 1 µM 5′-methylthioadenosine (MTA, Sigma) and ½ log serially diluted compounds in a reaction buffer of 50 mM Tris (pH 8.0), 50 mM NaCl, 0.01% Tween 20, 0.01% BSA, and 1 mM TCEP. Test compounds were pre-incubated with PRMT5/MEP50, SAM, and MTA for 1 hour before addition of FL-Histone H2A to initiate the PRMT5 reaction. The reaction was allowed to proceed for 20 hours at room temperature and was then terminated by addition of 1 µL of 9X MTase-Glo™ Reagent (Promega). After a 30-minute incubation at room temperature, 8 µL of MTase-Glo™ Detection Solution (Promega) was added and the plate was incubated at room temperature for an additional 30 minutes. The light signal corresponding to the amount of SAH produced by the PRMT5 reaction was subsequently measured using an Envision multimode reader (PerkinElmer). IC50 and KI values were obtained by analyzing dose-response curves using GraphPad Prism®.

| SMILES | IC50 (HCT116 MTAP null cells) | Ki (PRMT5/MEP50) |
| --- | --- | --- |
| Cc1cc2cc(C(=O)N(Cc3cc(Cl)ccn3)CC(C)C)ccc2nc1N [Example 639, 2-amino-N-[(4-chloro-2-pyridyl)methyl]-N-isobutyl-3-methylquinoline-6-carboxamide] | 580 nM | 12.2 nM |
| Cc1cc2cc(C(=O)N(Cc3ncccc3Br)CC(C)C)ccc2nc1N [Example 640, 2-amino-N-[(3-bromo-2-pyridyl)methyl] -N-isobutyl-3-methylquinoline-6-carboxamide] | 730 nM | 14.1 nM |
| Cc1cc2cc(C(=O)N(Cc3ccc(N4CCCC4=O)cc3)Cc3ccc(C(F)(F)F)cn3)ccc2nc1N [Example 645, 2-amino-3-methyl-N-[[4-(2-oxopyrrolidin-1-yl)phenyl]methyl] -N-[[5-(trifluoromethyl)-2-pyridyl]methyl] quinoline-6-carboxamide] | > 1000 nM | 5.93 nM |
| Cc1cc2cc(C(=O)N(Cc3ccc(-c4cc[nH]n4)cc3)Cc3ccc(C(F)(F)F)cn3)ccc2nc1N [Example 647, 2-amino-3-methyl-N-[[4-(IH-pyrazol-3-yl)phenyl]methyl]-N-[[5-(trifluoromethyl)-2-pyridyl]methyl] quinoline-6-carboxamide] | 320 nM | 4.11 nM |
| Cc1cc2cc(C(=O)N(Cc3cccc(-n4ccnc4)c3)Cc3ccc(C(F)(F)F)cn3)ccc2nc1N [Example 648, 2-amino-N-[(3-imidazol-1-ylphenyl)methyl]-3-methyl-N-[[5-(trifluoromethyl)-2-pyridyl]methyl] quinoline-6-carboxamide] | 180 nM | 1.68 nM |
| Cc1cc2cc(C(=O)N(Cc3cccc(-n4cncn4)c3)Cc3ccc(C(F)(F)F)cn3)ccc2nc1N [Example 649, 2-amino-3-methyl-N-[[3-(1,2,4-triazol-1-yl)phenyl]methyl]-N-[[5-(trifluoromethyl)-2-pyridyl]methyl] quinoline-6-carboxamide] | 310 nM | 2.69 nM |
| Cc1cc2cc(C(=O)N(Cc3cccc(-n4ccnn4)c3)Cc3ccc(C(F)(F)F)cn3)ccc2nc1N [Example 651, 2-amino-3-methyl-N-[[3-(triazol-1-yl)phenyl]methyl] -N-[ [5-(trifluoromethyl)-2-pyridyl]methyl] quinoline-6-carboxamide] | 310 nM | 3 to 9 nM |
| Cc1cc2cc(C(=O)N(Cc3ccc(C(F)(F)F)cn3)Cc3cccnc3-n3cncn3)ccc2nc1N [Example 652, 2-amino-3-methyl-N-[[2-(1,2,4-triazol-1-yl)-3-pyridyl]methyl]-N-[[5-(trifluoromethyl)-2-pyridyl]methyl] quinoline-6-carboxamide] | 160 nM | 3 to 7 nM |
| Cc1cc2cc(C(=O)N(Cc3ccc(C(O)C(F)(F)F)cc3)Cc3ccc(C(F)(F)F)cn3)ccc2nc1N (centres unmarked) [Example 660, 2-amino-3-methyl-N-[ [4-(2,2,2-trifluoro-1-hydroxyethyl)phenyl]methyl]-N-[[5-(trifluoromethyl)-2-pyridyl]methyl] quinoline-6-carboxamide] | 800 nM | 7.14 nM |
| Cc1cc2cc(C(=O)N(Cc3ccc(C(F)(F)F)cn3)C(C)c3cccc(O)c3)ccc2nc1N (centres unmarked) [Example 663, 2-amino-N-[1-(3-hydroxyphenyl)ethyl] -3-methyl-N-[[5-(trifluoromethyl)-2-pyridyl]methyl] quinoline-6-carboxamide] | 37 nM | 1.7 nM |

More lines, now with the values ahead:

| IC50 (HCT116 MTAP null cells) | Ki (PRMT5/MEP50) | SMILES |
| --- | --- | --- |
| 920 nM | 13.1 nM | Cc1cc2cc(C(=O)N(Cc3ccc(C(F)(F)F)cn3)C(C)C(C)O)ccc2nc1N (centres unmarked) [Example 641, 2-amino-N-(2-hydroxy-1-methylpropyl)-3-methyl-N-[[5-(trifluoromethyl)-2-pyridyl]methyl] quinoline-6-carboxamide] |
| 86 nM | 2.55 nM | Cc1cc2cc(C(=O)N(Cc3ccc(C(F)(F)F)cn3)C(C)C(C)C)ccc2nc1N (centres unmarked) [Example 642, 2-amino-N-(1,2-dimethylpropyl)-3-methyl-N-[[5-(trifluoromethyl)-2-pyridyl]methyl] quinoline-6-carboxamide] |
| 850 nM | 6.83 nM | Cc1cc2cc(C(=O)N(Cc3ccc(N4CCCC4)cc3)Cc3ccc(C(F)(F)F)cn3)ccc2nc1N [Example 646, 2-amino-3-methyl-N-[(4-pyrrolidin-1-ylphenyl)methyl]-N-[[5-(trifluoromethyl)-2-pyridyl]methyl] quinoline-6-carboxamide] |
| 370 nM | 2.21 nM | Cc1cc2cc(C(=O)N(Cc3cccc(-c4ncc[nH]4)c3)Cc3ccc(C(F)(F)F)cn3)ccc2nc1N [Example 650, 2-amino-N-[ [3-(1 H-imidazol-2-yl)phenyl]methyl] -3-methyl-N-[ [5-(trifluoromethyl)-2-pyridyl]methyl] quinoline-6-carboxamide] |
| 280 nM | 2.79 nM | Cc1cc2cc(C(=O)N(Cc3ccc(C(F)(F)F)cn3)Cc3ccccc3-n3ccnc3)ccc2nc1N [Example 653, 2-amino-N-[(2-imidazol-1-ylphenyl)methyl]-3-methyl-N-[[5-(trifluoromethyl)-2-pyridyl]methyl] quinoline-6-carboxamide] |
| 250 nM | 5.61 nM | Cc1cc2cc(C(=O)N(Cc3ccc(C(F)(F)F)cn3)Cc3ccccc3-n3cccn3)ccc2nc1N [Example 654, 2-amino-3-methyl-N-[(2-pyrazol-1-ylphenyl)methyl]-N-[[5-(trifluoromethyl)-2-pyridyl]methyl] quinoline-6-carboxamide] |
| 550 nM | 4 to 9 nM | C#CCN(Cc1ccc(C(F)(F)F)cn1)C(=O)c1ccc2nc(N)c(C)cc2c1 [Example 655, 2-amino-3-methyl-N-prop-2-ynyl-N-[[5-(trifluoromethyl)-2-pyridyl]methyl] quinoline-6-carboxamide] |
| 210 nM | 5.28 nM | C#CC(C)N(Cc1ccc(C(F)(F)F)cn1)C(=O)c1ccc2nc(N)c(C)cc2c1 (centres unmarked) [Example 656, 2-amino-3-methyl-N-(1-methylprop-2-ynyl)-N-[[5-(trifluoromethyl)-2-pyridyl]methyl] quinoline-6-carboxamide] |
| 620 nM | 5.34 nM | CC#CCN(Cc1ccc(C(F)(F)F)cn1)C(=O)c1ccc2nc(N)c(C)cc2c1 [Example 657, 2-amino-N-but-2-ynyl-3-methyl-N-[[5-(trifluoromethyl)-2-pyridyl]methyl] quinoline-6-carboxamide] |
| 251 nM | 4.33 nM | C#CCCN(Cc1ccc(C(F)(F)F)cn1)C(=O)c1ccc2nc(N)c(C)cc2c1 [Example 659, 2-amino-N-but-3-ynyl-3-methyl-N-[[5-(trifluoromethyl)-2-pyridyl]methyl] quinoline-6-carboxamide] |
| 69 nM | 1.81 nM | Cc1cc2cc(C(=O)N(Cc3ccc(O)cc3)Cc3ccc(C(F)(F)F)cn3)ccc2nc1N [Example 661, 2-amino-N-[(4-hydroxyphenyl)methyl]-3-methyl-N-[[5-(trifluoromethyl)-2-pyridyl]methyl] quinoline-6-carboxamide] |
| 180 nM | 3.58 nM | Cc1cc2cc(C(=O)N(Cc3ccc(O)c(F)c3)Cc3ccc(C(F)(F)F)cn3)ccc2nc1N [Example 662, 2-amino-N-[(3-fluoro-4-hydroxyphenyl)methyl] -3-methyl-N-[ [5-(trifluoromethyl)-2-pyridyl]methyl] quinoline-6-carboxamide] |
